Measured values: PubChem BioAssay AID720587 (Broad Institute, 2013)

The compounds below were run on A673 Ewing sarcoma viability, CellTiter-Glo ATP luminescence, 72 h (assay: A673 Ewing sarcoma viability loss – cell-based, CellTiter-Glo luminescence, cherry-pick retest, confirmation (AID 720587)).

| SMILES | AC35 [µM] |
| --- | --- |
| Cc1cc(C)cc(C(=O)NC(=S)Nc2ccc(Cc3ccncc3)cc2)c1 | 14.2 |
| O=c1[nH]c(=O)n(C2C[C@H](O)[C@@H](CO)O2)cc1C(F)(F)F (some centres undefined) | 3.17 |
| N#C[C@@H]1[C@H](c2ccc(C#Cc3ccc(F)cc3)cc2)[C@@H](CO)N1C(=O)Nc1ccc(F)cc1 | 12.3 |
| CC1(C)N=C(N)N=C(N)N1c1ccc(OCCCOc2ccccc2)c(Cl)c1 | 1.48 |
| C[C@@H]1CN([C@@H](C)CO)C(=O)c2cccc(NS(=O)(=O)c3ccccc3)c2O[C@@H]1CN(C)Cc1ccc(C(=O)Nc2ccccc2N)cc1 | 8.86 |
| Brc1ccc(CSc2nnc(-c3ccco3)o2)cc1 | 6.49 |
| CCn1c(/C=N/NC(=O)c2ccc(OC)cc2)nc2ccccc21 | 5.62 |
| O=C(O)c1ccc(N/N=C/c2ccc3c(c2)OCO3)cc1 | 16.5 |
| COC(=O)C(CC#Cc1ccc2c(c1)[C@]1(C(=O)N2)[C@H](c2ccc(OCCO)cc2)N2[C@H](c3ccccc3)[C@H](c3ccccc3)OC(=O)[C@H]2[C@@H]1C(=O)N1CCN(c2ncccn2)CC1)C(=O)OC | 7.81 |
| CC1=NN(c2ccc(C)cc2)C(=O)/C1=C\C=C\c1ccccc1 | 7.95 |
| O=c1[nH]c(=O)n([C@H]2C[C@H](O)[C@@H](CO)O2)cc1F | 0.0545 |
| Nc1cc2c(cc1Br)[nH]c(=O)c1ccccc12 | 16.6 |
| C[C@H](CO)N1C[C@H](C)[C@H](CN(C)Cc2ccc(C(=O)Nc3ccccc3N)cc2)Oc2ccc(N(C)C)cc2CC1=O | 3.83 |
| C(=Cc1c[nH]c2ccccc12)c1ccc2ccccc2n1 | 1.16 |
| Oc1c(C(c2ccc(Cl)cc2)N2CCCC2)cc(Cl)c2cccnc12 (centres undefined) | 1.47 |
| O=C1NC(=O)N(Cc2ccccc2)C(=O)/C1=C\C=C\c1ccco1 | 5.05 |
| C[C@H]1CCCCO[C@H](CN(C)Cc2ccc(C(F)(F)F)cc2)[C@@H](C)CN([C@@H](C)CO)C(=O)c2cc(NC(=O)Nc3ccccc3)ccc2O1 | 12.6 |
| C[C@@H]1CN([C@@H](C)CO)C(=O)c2cccc(NS(=O)(=O)c3ccc(Cl)cc3)c2O[C@@H]1CN(C)Cc1ccc(C(=O)Nc2ccccc2N)cc1 | 8.47 |
| CC(C)(C)c1ccc(Oc2ccc(N)cn2)cc1 | 5.13 |
| Cc1cccc(CN2C(=O)/C(=C\c3ccc(C(=O)NCCCN4CCN(C)CC4)cc3)Oc3ccccc32)c1 | 12.3 |
| C[C@@H]1CN([C@@H](C)CO)C(=O)c2cc(NC(=O)Nc3ccccc3)ccc2O[C@@H]1CN(C)Cc1ccc(C(=O)Nc2ccccc2N)cc1 | 7.56 |
| C[C@@H]1CCCCO[C@H](CN(C)Cc2ccc(C(F)(F)F)cc2)[C@H](C)CN([C@H](C)CO)C(=O)c2cc(NC(=O)CCCN(C)C)ccc2O1 | 7.73 |
| CN(C[C@H]1N[C@@H](CO)[C@@H]1c1ccc(C2=CCCC2)cc1)C(=O)c1ccc(F)cc1 | 4.19 |

| SMILES | AC35 [µM] |
| --- | --- |
| COC(=O)C[C@H]1CC[C@H]2[C@H](COc3ccc(NC(=O)Nc4cccc(Cl)c4)cc3C(=O)N2C)O1 | 13.6 |
| C[C@@H]1CCCCO[C@H](CN(C)Cc2ccc(C(=O)Nc3ccccc3N)cc2)[C@@H](C)CN([C@@H](C)CO)C(=O)c2cc(NS(=O)(=O)c3ccc(Cl)cc3)ccc2O1 | 8.42 |
| COc1cccc(-c2cc(NC=O)c3ncc(-c4ccc(C(C)=O)cc4)n3c2)c1 | 4.09 |
| Oc1cccc(-c2nnc(-c3cccc(O)c3)nn2)c1 | 11.9 |
| CCOc1cc(/C=N/Nc2cc(C)nc(-n3nc(C)cc3C)n2)ccc1O | 1.77 |
| O=c1ccc2[n+]([O-])c3ccc(O)cc3oc-2c1 | 8.92 |
| Nc1nc(N)c(-c2cccc(C(F)(F)F)c2)c(Cc2cccc(C(F)(F)F)c2)n1 | 5.72 |
| Cc1ccc(C(C(=O)NCc2ccco2)N(C(=O)CNC(=O)c2cccs2)c2c(C)cc(C)cc2C)cc1 (centres undefined) | 14.6 |
| C=C(C(=O)c1ccccc1)C(C)C(=C)C(=O)c1ccccc1 | 4.81 |
| COc1ccccc1N(/N=C1\Sc2ccccc2C1=O)C(C)=O | 14.8 |
| C[C@@H]1O[C@@H](O[C@H]2C[C@@H](O)[C@]3(CO)[C@H]4[C@H](O)C[C@]5(C)[C@@H](C6COC(=O)C6)CC[C@]5(O)[C@@H]4CC[C@]3(O)C2)[C@H](O)[C@H](O)[C@H]1O (some centres undefined) | 2.06 |
| C[C@@H]1CN([C@@H](C)CO)S(=O)(=O)c2ccc(C#CC(C)(C)O)cc2O[C@H]1CN(C)Cc1ccc(-c2ccccc2)cc1 | 5.75 |
| COc1ccc(CC(N)c2csc(NC(=O)Nc3cccc(C(F)(F)F)c3)n2)cc1 (centres undefined) | 6.74 |
| O=C1NC(=S)NC(=O)C1=Cc1cccn1-c1ccc(O)cc1 | 17.7 |
| C=C1C(=O)OC2C1CCC(C)C1(O)C=CC(=O)C21C (centres undefined) | 6.43 |
| N#C[C@H]1N[C@H](CO)[C@H]1c1ccc(C#Cc2ccc(F)cc2)cc1 | 20.2 |
| CCCCNC1=CC(=O)C(=O)c2ccccc21 | 2.77 |
| COC(=O)Cc1[nH]n(-c2nc3ccccc3s2)c(=O)c1C(C)=Nc1ccc(OC)cc1 | 19.2 |
| COc1ccc(-c2cc(CNc3nc(NC(C)C)nc4cc(-c5ccccc5)sc34)on2)cc1 | 10 |
| O=C1c2ccccc2C(=O)c2cc(N3CCCCC3)ccc21 | 16.8 |
| COc1cc2c(OC(C)=O)c3c(c(-c4ccc5c(c4)OCO5)c2cc1OC)C(=O)OC3 | 0.0216 |
| CCc1ccc2oc(C(=O)N3CCN(c4ccccc4OC)CC3)cc(=O)c2c1 | 14.3 |
| COc1ccc(/C=C2/NC(=O)N(CC(=O)Nc3cccc(C)c3)C2=O)cc1O | 18.8 |

| SMILES | AC35 [µM] |
| --- | --- |
| COC(=O)C[C@@H]1CC[C@@H]2[C@H](COc3ccc(NC(=O)c4ccc(F)cc4)cc3C(=O)N2C)O1 | 23 |
| COc1ccc(N=C2C(=O)Nc3ccc(C)c(Br)c32)cc1 | 17 |
| CN(C)c1ccc(N=Nc2nc3ccccc3n2C)cc1 | 8.63 |
| CC(C)c1ccc(OCc2cccc(C(=O)N/N=C/c3cccnc3)c2)cc1 | 19.4 |
| OC[C@H]1[C@@H](c2ccc(C#CC3CCCC3)cc2)[C@@H]2CN(CCC(F)(F)F)CCCCN12 | 7.53 |
| C[C@@H]1CN([C@@H](C)CO)C(=O)c2cccc(N(C)C)c2O[C@@H]1CN(C)Cc1ccc(C(=O)Nc2ccccc2N)cc1 | 13.8 |
| C[C@]12CCC3C(CCC4=CC(O)CC[C@@]43/C=N/O)C1(O)CCC2C1=CC(=O)OC1 (some centres undefined) | 0.569 |
| C[C@H]1CN([C@@H](C)CO)S(=O)(=O)c2ccc(C#Cc3ccncc3)cc2O[C@@H]1CN(C)C(=O)Nc1ccc2c(c1)OCO2 | 0.64 |
| O=C(N/N=C/c1cnc(N2CCCCC2)s1)c1ccc(C(F)(F)F)cc1 | 13.8 |
| CN1c2ccc(-c3ccc(C#N)cc3)cc2[C@H]2[C@H](CCN2S(=O)(=O)c2cccc(F)c2)[C@H]1CO | 3.45 |
| Cc1ccc(C)c(S(=O)(=O)N2CCN(c3ncnc4sccc34)CC2)c1 | 5.35 |
| C[C@@H]1CN([C@@H](C)CO)C(=O)Cc2cc(NC(=O)C3CCCCC3)ccc2O[C@H]1CN(C)Cc1ccc(C(=O)Nc2ccccc2N)cc1 | 20.8 |
| COCC(=O)Nc1ccc2c(c1)[C@@H]1C[C@@H](CC(=O)NCc3ccc(-c4ccccc4)cc3)O[C@@H](CO)[C@@H]1O2 | 12.7 |
| COc1ccc(C(CCNCc2ccc(OC(C)C)cc2)C(C)C)cc1 (centres undefined) | 12.6 |
| C(=Cc1nc2ccccc2o1)c1ccc2c(c1)OCO2 | 19 |
| CC(=O)OC1CC(OC2C(O)CC(OC3C(O)CC(OC4CCC5(C)C(CCC6C5CCC5(C)C(C7=CC(=O)OC7)CCC65O)C4)OC3C)OC2C)OC(C)C1OC1OC(CO)C(O)C(O)C1O (centres undefined) | 0.105 |
| Cc1cc(C(=O)Nc2ccc3c(c2)C(=O)N(C)[C@@H]2CC[C@H](CC(=O)N[C@H](C)c4ccccc4)O[C@H]2CO3)no1 | 12.9 |
| C[C@H]1CN([C@@H](C)CO)C(=O)Cc2cc(NC(=O)CCC(F)(F)F)ccc2O[C@H]1CN(C)Cc1ccc(C(=O)Nc2ccccc2N)cc1 | 8.75 |
| C=C1C(=O)O[C@@H]2[C@H]1[C@@H](OC(=O)/C(C)=C/C)C/C(C)=C\C(=O)/C=C(\C)[C@@H]2O | 3.23 |
| Cc1nc(N)nc(N)c1/C=C/C(C)(C)c1ccc(Cl)cc1 | < 0.011 |
| COC(=O)C[C@@H]1CC[C@H]2[C@H](COc3ccc(NC(=O)Nc4ccc(C#N)cc4)cc3C(=O)N2C)O1 | 11.3 |
| O=C1c2ccc3c4c(ccc(c24)C(=O)N1c1cccc(O)c1)C(=O)N(c1cccc(O)c1)C3=O | 2.47 |
| COC1C(C)OC(OC2CC(C)(O)Cc3cc4c(c(O)c32)C(=O)c2c(O)cc3c(c2C4=O)OC2OC3(C)C(O)C(N(C)C)C2O)C(OC)C1(C)OC (centres undefined) | 0.0582 |

| SMILES | AC35 [µM] |
| --- | --- |
| C[C@H](CO)N1C[C@H](C)[C@H](CN(C)Cc2ccc(C(F)(F)F)cc2)Oc2ccc(NC(=O)CCCCCC(=O)Nc3ccccc3N)cc2CC1=O | 7.93 |
| O=C(Sc1cccc2cccnc12)c1ccccc1Br | 1.17 |
| CN(C)c1ccc2c(c1)[C@@H]1C[C@@H](CC(=O)NCc3ccc(Oc4ccccc4)cc3)O[C@H](CO)[C@@H]1O2 | 12.8 |
| COc1ccc(S(=O)(=O)Nc2ccc3c(c2)C(=O)N([C@H](C)CO)C[C@@H](C)[C@@H](CN(C)Cc2ccc(C(=O)Nc4ccccc4N)cc2)O3)cc1 | 12.5 |
| O=C(NCc1cccnc1)C1Cc2c(-c3ccc(Cl)cc3)ccnc2O1 (centres undefined) | 7.98 |
| Nc1nc(=S)c2[nH]cnc2[nH]1 | 0.814 |
| C(=N\Nc1nc2ccccc2[nH]1)/c1ccccn1 | 1.74 |
| CCN1C/C(=C/c2ccc(OC)c(O)c2)C(=O)/C(=C/c2ccc(OC)c(O)c2)C1 | 11.1 |
| COc1ccccc1NC(=O)N1CCCCN2[C@H](CO)[C@H](c3ccc(-c4cccc(C)c4)cc3)[C@H]2C1 | 9.29 |
| CCN1CCS/C1=C\C=C\C1=[N+](CC)CCS1 | 16.1 |
| CC1(C)N=C(N)N=C(N)N1c1ccc(CCCCc2ccccc2)cc1 | 0.65 |
| COC(=O)c1ccccc1-c1c2ccc(=N)cc-2oc2cc(N)ccc12 | 3.64 |
| C[C@H]1CN([C@@H](C)CO)C(=O)c2cc(NS(=O)(=O)c3ccc(Cl)cc3)ccc2O[C@H]1CN(C)Cc1ccc(C(=O)Nc2ccccc2N)cc1 | 13.1 |
| COc1ccc(Cn2cc3c(-c4ccc(F)cc4)nnc-3c3cc(OC)c(OC)cc32)cc1 | 4.86 |
| COc1ccc(/C=C(/C(=O)c2cccs2)N2C=CC=CC2=C(C#N)C#N)cc1 | 3.97 |
| Cc1ccccc1S(=O)(=O)N1CC[C@@H]2[C@@H](CO)Nc3ccc(-c4ccc(C#N)cc4)cc3[C@@H]21 | 4.47 |
| C[C@]12CC[C@H](O)C[C@H]1CC[C@@H]1[C@@H]2C[C@@H](O)[C@]2(C)[C@@H](C3=CC(=O)OC3)CC[C@]12O | 1.1 |
| CN(C)c1ccc(-c2ccnc3c2CC(C)(C(=O)NCc2ccco2)O3)cc1 (centres undefined) | 7.77 |
| O=C(O)c1ccc(N/N=C/c2ccc3nccnc3c2)cc1 | 15 |
| CN1C(=O)c2cc(NC(=O)c3ccc(Cl)cc3)ccc2OC[C@@H]2O[C@@H](CC(=O)NCc3cccc(F)c3)CC[C@H]21 | 5.42 |
